Measured values as given in US9260417B2, “Therapeutic methods and compositions involving allosteric kinase inhibition” (AMITECH THERAPEUTIC SOLUTIONS, INC., priority 2010, dated 2016).
Where two headings read alike, the source gives them in different places.

How the values were obtained:
AKT1 = AKT1 (Homo sapiens (Human), UniProt P31749); assay: In vitro kinase panel (SelectScreen); type: biochemical
From the text: (§1) In vitro kinase screen and competitive binding assay. Sorafenib as well as test compounds were submitted to Invitrogen and screened using their SelectScreen™ Profiling Service.

CK2 alpha 1 = CK2 alpha 1 (Homo sapiens (Human), UniProt P68400); assay: In vitro kinase panel (SelectScreen); type: biochemical
Sequence of CK2 alpha 1 (P68400 whole entry): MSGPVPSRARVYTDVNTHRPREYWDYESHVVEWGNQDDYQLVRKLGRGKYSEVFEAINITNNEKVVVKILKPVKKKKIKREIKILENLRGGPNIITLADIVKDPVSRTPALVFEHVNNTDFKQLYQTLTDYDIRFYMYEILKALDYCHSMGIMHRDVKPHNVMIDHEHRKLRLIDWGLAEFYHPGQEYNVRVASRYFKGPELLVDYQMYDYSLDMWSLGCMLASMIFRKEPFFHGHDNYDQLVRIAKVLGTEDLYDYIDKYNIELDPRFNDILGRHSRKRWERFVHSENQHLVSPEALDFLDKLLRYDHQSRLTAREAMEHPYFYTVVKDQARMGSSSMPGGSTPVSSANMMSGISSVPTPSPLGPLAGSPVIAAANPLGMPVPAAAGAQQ
From the text: as §1

CRAF Y340D Y341D = CRAF Y340D Y341D (Homo sapiens (Human), UniProt P04049, Y340D/Y341D); assay: In vitro kinase panel (SelectScreen); type: biochemical
From the text: as §1

ERK1 = ERK1 (Homo sapiens (Human), UniProt P27361); assay: In vitro kinase panel (SelectScreen); type: biochemical
Sequence of ERK1 (P27361 whole entry): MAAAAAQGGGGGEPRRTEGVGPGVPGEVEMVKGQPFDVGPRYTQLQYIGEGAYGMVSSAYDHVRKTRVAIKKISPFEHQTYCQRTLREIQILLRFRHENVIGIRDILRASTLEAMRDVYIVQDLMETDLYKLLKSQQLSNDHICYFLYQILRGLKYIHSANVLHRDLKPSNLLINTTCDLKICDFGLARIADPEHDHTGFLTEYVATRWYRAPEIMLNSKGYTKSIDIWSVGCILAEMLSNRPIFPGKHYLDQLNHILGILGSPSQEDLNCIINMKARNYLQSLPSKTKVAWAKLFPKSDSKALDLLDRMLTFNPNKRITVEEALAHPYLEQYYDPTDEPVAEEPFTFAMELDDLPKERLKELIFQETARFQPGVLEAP
From the text: as §1

ERK2 = ERK2 (Homo sapiens (Human), UniProt P28482); assay: In vitro kinase panel (SelectScreen); type: biochemical
From the text: as §1

FAK2 = FAK2 (Homo sapiens (Human), UniProt Q14289); assay: In vitro kinase panel (SelectScreen); type: biochemical
From the text: as §1

FGFR1 = FGFR1 (Homo sapiens (Human), UniProt P11362); assay: In vitro kinase panel (SelectScreen); type: biochemical
From the text: as §1

FGFR2 = FGFR2 (Homo sapiens (Human), UniProt P21802); assay: In vitro kinase panel (SelectScreen); type: biochemical
Sequence of FGFR2 (P21802 22-821): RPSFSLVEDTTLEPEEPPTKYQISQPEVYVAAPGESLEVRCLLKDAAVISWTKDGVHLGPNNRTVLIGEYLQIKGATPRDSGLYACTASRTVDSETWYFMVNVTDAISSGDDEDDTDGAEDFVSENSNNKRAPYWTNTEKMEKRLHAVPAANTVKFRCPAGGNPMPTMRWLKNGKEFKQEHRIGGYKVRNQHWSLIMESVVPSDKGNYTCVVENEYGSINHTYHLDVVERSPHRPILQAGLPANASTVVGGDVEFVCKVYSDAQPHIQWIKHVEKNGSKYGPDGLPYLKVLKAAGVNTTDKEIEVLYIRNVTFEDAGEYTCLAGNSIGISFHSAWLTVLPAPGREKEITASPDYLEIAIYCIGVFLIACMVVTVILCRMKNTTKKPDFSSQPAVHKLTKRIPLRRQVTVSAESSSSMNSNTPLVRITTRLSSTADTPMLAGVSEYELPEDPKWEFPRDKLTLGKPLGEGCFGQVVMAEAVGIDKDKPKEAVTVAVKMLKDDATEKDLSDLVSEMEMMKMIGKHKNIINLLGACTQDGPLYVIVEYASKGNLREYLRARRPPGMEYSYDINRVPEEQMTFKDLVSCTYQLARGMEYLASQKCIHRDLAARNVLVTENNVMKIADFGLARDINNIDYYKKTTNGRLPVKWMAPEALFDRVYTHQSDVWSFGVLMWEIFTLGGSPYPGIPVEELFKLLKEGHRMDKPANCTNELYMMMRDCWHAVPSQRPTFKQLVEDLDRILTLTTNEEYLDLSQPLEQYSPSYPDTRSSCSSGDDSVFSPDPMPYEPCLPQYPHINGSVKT
From the text: as §1

FGFR3 = FGFR3 (Homo sapiens (Human), UniProt P22607); assay: In vitro kinase panel (SelectScreen); type: biochemical
From the text: as §1

FGFR3 K650E = FGFR3 K650E (Homo sapiens (Human), UniProt P22607, K650E); assay: In vitro kinase panel (SelectScreen); type: biochemical
From the text: as §1

IGF1R = IGF1R (Homo sapiens (Human), UniProt P08069); assay: In vitro kinase panel (SelectScreen); type: biochemical
Sequence of IGF1R (P08069 31-1367): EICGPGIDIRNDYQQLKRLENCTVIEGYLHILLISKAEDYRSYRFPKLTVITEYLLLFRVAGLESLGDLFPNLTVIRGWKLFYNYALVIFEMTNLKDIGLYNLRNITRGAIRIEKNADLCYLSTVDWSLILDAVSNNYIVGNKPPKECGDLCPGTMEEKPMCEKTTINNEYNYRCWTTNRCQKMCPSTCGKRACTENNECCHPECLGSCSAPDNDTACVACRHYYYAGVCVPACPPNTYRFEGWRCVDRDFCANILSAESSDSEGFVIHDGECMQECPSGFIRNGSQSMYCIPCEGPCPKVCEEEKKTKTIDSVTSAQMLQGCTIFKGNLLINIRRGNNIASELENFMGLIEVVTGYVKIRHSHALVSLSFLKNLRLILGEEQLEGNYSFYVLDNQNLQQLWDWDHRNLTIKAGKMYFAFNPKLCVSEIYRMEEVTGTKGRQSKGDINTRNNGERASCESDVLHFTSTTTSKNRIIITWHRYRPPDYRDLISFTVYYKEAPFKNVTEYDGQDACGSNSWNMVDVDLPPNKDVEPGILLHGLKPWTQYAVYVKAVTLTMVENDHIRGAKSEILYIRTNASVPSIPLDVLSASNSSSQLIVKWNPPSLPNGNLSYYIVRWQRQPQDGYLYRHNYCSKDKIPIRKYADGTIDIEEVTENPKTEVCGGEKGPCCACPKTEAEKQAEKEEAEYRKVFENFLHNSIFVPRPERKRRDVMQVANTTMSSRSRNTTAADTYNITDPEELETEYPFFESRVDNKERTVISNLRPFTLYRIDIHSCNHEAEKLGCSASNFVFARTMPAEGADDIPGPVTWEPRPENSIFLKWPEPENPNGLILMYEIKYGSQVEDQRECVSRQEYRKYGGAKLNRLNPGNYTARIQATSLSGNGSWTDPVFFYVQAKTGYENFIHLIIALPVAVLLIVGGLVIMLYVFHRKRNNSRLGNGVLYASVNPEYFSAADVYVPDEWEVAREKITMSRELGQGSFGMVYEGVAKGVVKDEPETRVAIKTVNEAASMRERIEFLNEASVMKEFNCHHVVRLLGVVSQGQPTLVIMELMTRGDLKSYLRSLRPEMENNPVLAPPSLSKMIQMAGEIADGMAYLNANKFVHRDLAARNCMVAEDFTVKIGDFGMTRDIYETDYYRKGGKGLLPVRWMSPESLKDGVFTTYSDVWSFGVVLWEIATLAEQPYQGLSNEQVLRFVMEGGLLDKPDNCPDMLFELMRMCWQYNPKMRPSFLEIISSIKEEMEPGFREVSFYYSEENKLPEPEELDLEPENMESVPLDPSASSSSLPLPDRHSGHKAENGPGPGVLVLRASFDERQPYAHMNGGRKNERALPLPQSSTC
From the text: as §1

JNK2 = JNK2 (Homo sapiens (Human), UniProt P45984); assay: In vitro kinase panel (SelectScreen); type: biochemical
From the text: as §1

JNK3 = JNK3 (Homo sapiens (Human), UniProt P53779); assay: In vitro kinase panel (SelectScreen); type: biochemical
From the text: as §1

KIT = KIT (Homo sapiens (Human), UniProt P10721); assay: In vitro kinase panel (SelectScreen); type: biochemical
From the text: as §1

MAPKAPK2 = MAPKAPK2 (Homo sapiens (Human), UniProt P49137); assay: In vitro kinase panel (SelectScreen); type: biochemical
Sequence of MAPKAPK2 (P49137 whole entry): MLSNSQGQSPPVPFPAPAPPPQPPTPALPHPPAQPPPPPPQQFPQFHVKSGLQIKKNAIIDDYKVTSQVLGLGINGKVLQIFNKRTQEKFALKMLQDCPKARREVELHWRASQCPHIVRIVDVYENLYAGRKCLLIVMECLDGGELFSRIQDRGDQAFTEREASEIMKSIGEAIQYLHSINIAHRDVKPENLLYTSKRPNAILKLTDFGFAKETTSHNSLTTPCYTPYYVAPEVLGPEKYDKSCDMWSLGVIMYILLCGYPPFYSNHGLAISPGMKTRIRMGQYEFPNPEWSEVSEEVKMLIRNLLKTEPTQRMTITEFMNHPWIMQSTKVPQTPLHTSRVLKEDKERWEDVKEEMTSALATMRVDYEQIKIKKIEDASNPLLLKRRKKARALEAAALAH
From the text: as §1

MEK1 = MEK1 (Homo sapiens (Human), UniProt Q02750); assay: In vitro kinase panel (SelectScreen); type: biochemical
Sequence of MEK1 (Q02750 whole entry): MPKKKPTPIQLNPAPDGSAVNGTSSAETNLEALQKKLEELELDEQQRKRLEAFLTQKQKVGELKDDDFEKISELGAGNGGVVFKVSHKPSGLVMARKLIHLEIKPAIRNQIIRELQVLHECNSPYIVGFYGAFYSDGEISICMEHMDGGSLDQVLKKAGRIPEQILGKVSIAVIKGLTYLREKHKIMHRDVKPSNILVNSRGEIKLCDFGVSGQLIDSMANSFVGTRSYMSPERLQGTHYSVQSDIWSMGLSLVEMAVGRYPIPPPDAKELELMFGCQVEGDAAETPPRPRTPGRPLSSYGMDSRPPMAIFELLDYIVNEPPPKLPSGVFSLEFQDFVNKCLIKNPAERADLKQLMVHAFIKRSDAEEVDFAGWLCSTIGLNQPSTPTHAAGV
From the text: as §1

MEK2 = MEK2 (Homo sapiens (Human), UniProt P36507); assay: In vitro kinase panel (SelectScreen); type: biochemical
From the text: as §1

MET (cMet) = MET (cMet) (Homo sapiens (Human), UniProt P08581); assay: In vitro kinase panel (SelectScreen); type: biochemical
From the text: as §1

MET M1250T = MET M1250T (Homo sapiens (Human), UniProt P08581, M1250T); assay: In vitro kinase panel (SelectScreen); type: biochemical
From the text: as §1

PAK2 = PAK2 (Homo sapiens (Human), UniProt Q13177); assay: In vitro kinase panel (SelectScreen); type: biochemical
Sequence of PAK2 (Q13177 whole entry): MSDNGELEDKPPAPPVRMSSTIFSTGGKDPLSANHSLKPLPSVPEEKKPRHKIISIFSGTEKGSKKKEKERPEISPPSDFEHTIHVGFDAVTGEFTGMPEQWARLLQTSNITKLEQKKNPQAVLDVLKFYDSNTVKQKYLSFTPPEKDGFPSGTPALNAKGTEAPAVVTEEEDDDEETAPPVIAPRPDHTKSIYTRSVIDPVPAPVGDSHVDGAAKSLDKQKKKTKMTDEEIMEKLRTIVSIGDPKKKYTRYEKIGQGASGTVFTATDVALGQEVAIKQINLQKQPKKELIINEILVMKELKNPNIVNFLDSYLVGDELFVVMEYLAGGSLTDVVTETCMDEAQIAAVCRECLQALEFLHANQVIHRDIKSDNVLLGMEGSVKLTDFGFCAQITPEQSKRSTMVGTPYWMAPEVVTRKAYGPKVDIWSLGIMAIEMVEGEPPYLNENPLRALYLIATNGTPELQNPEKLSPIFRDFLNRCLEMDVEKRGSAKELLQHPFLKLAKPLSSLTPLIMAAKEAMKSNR
From the text: as §1

PKC alpha = PKC alpha (Homo sapiens (Human), UniProt P17252); assay: In vitro kinase panel (SelectScreen); type: biochemical
From the text: as §1

PKC beta I = PKC beta I (Homo sapiens (Human), UniProt P05771); assay: In vitro kinase panel (SelectScreen); type: biochemical
From the text: as §1

PKC beta II = PKC beta II (Homo sapiens (Human), UniProt P05771); assay: In vitro kinase panel (SelectScreen); type: biochemical
From the text: as §1

PKC delta = PKC delta (Homo sapiens (Human), UniProt Q05655); assay: In vitro kinase panel (SelectScreen); type: biochemical
From the text: as §1

PKC epsilon = PKC epsilon (Homo sapiens (Human), UniProt Q02156); assay: In vitro kinase panel (SelectScreen); type: biochemical
From the text: as §1

PKC eta = PKC eta (Homo sapiens (Human), UniProt P24723); assay: In vitro kinase panel (SelectScreen); type: biochemical
From the text: as §1

PKC gamma = PKC gamma (Homo sapiens (Human), UniProt P05129); assay: In vitro kinase panel (SelectScreen); type: biochemical
From the text: as §1

HUVECs = assay: XTT viability assay in HUVECs; type: cell-based, human; conditions: 72 h, read-out: EC50, endothelial cell viability
Method: FIG. 1A-1F illustrate molecular modeling and assay screening to compounds for dual targeting of PDGFRβ and RAF. (FIG. 1A) Molecular modeling of the amino-triazole based small molecules in PDGFRβ and RAF, respectively. […] A homology model of PDGFRβ was created with a structurally-related family member (VEGFR2, PDB 1y6b). […] To autophosphorylation, immunoblots were carried out with a phospho-tyrosine antibody. Membranes were stripped and reprobed for total PDGFRβ levels. […] (FIG. 1D) Structure activity relationships of the amino-triazole based small molecules comparing both PDGFRβ and B-RAF. […] Curves represent the average of 3 separate experiments, error bars represent ±SEM.
For XTT assays, cells were grown in 96-well plates overnight and all assays were conducted in growth medium will full serum and additives. […] Dose-response curves were plotted using GraphPad Prism software and EC50s were calculated using this program.

XPA-1 cells = assay: Cell cycle analysis of XPA-1 cells (flow cytometry); type: cell-based; conditions: 5 μM, 20 h
Method: For cell cycle analysis, cells were grown in complete DMEM+10% FBS in the presence of each inhibitor and harvested after 20 h of inhibitor treatment. Cell cycle analysis was performed by flow cytometry following propidium iodide staining. The cells were harvested, fixed with ice cold methanol, treated for 45 min with 10 μg/ml of RNAse and resuspended in PBS containing 10 μg/ml of PI, and analysed by flow cytometry. […] For corresponding confocal microscopy images, cells attached to coverslips were fixed with cold methanol and permeabilized in PBS containing 0.1% triton X-100 for two minutes and blocked for 60 minutes, at room temperature with 2% BSA in PBS. Cells were stained with the DNA binding dye TOPRO-3 (Invitrogen) to label the DNA and laminB (Santa Cruz) to label the nuclear envelope. The anti-Lamin B antibody was used at a 1:100 dilution for two hours at room temperature. After washing several times with PBS, cells were stained for two hours at room temperature, with secondary antibody diluted 1:300 and co-incubated with TOPRO-3 (1:500) (Invitrogen). Samples were mounted in Vectashield hard-set mounting media (Vector Laboratories) and imaged on a Nikon Eclipse Cl confocal microscope with a 1.4 NA 60× oil-immersion lens, using minimum pinhole (30 μm). Images were captured and processed using EZ-C1 3.50 imaging software (Nikon, Inc). Scale bars, 10 μm.

Sequence of AKT1 (P31749 whole entry): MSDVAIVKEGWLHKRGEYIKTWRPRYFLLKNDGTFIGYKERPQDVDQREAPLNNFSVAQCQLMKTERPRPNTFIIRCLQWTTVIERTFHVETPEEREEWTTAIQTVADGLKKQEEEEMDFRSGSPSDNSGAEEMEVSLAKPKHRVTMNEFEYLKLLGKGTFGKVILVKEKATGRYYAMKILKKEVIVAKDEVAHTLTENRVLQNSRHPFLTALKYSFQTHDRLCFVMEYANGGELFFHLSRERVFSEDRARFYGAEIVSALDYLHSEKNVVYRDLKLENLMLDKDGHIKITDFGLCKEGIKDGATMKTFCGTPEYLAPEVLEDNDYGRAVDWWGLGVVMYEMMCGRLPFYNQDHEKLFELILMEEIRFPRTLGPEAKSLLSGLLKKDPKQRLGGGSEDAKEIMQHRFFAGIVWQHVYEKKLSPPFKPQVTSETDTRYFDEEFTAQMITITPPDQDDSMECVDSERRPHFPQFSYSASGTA

Q: For `CSc1nc(N)cc(Oc2ccc(-c3nnc(Nc4cccc(C(F)(F)F)c4)[nH]3)cc2)n1` [Compound 6], which “% Inhibition at 10 μM” value (AKT1) is on record?
A: 2%

Q: And the “% Inhibition at 10 μM” value (CK2 alpha 1)?
A: 0%

Q: What about the “% Inhibition at 10 μM” value (CRAF Y340D Y341D) of the same molecule?
A: 3%

Q: And the “% Inhibition at 10 μM” value (ERK1)?
A: 2%

Q: And the “% Inhibition at 10 μM” value (ERK2)?
A: −5%

Q: And the “% Inhibition at 10 μM” value (FAK2)?
A: −4%

Q: What about the “% Inhibition at 10 μM” value (FGFR1) of the same molecule?
A: 6%

Q: What about the “% Inhibition at 10 μM” value (FGFR2) of the same molecule?
A: −2%

Q: And the “% Inhibition at 10 μM” value (FGFR3)?
A: −13%

Q: What about the “% Inhibition at 10 μM” value (FGFR3 K650E) of the same molecule?
A: −1%

Q: And the “% Inhibition at 10 μM” value (IGF1R)?
A: 0%

Q: What about the “% Inhibition at 10 μM” value (JNK2) of the same molecule?
A: −4%

Q: What about the “% Inhibition at 10 μM” value (JNK3) of the same molecule?
A: −8%

Q: What about the “% Inhibition at 10 μM” value (KIT) of the same molecule?
A: 28%

Q: And the “% Inhibition at 10 μM” value (MAPKAPK2; 10 μM, MAPKAPK2)?
A: 2%

Q: What about the “% Inhibition at 10 μM” value (MEK1) of the same molecule?
A: −2%

Q: What about the “% Inhibition at 10 μM” value (MEK2) of the same molecule?
A: −6%

Q: And the “% Inhibition at 10 μM” value (MET (cMet))?
A: 3%

Q: And the “% Inhibition at 10 μM” value (MET M1250T)?
A: −1%

Q: And the “% Inhibition at 10 μM” value (PAK2)?
A: 1%

Q: And the “% Inhibition at 10 μM” value (PKC alpha)?
A: −1%

Q: And the “% Inhibition at 10 μM” value (PKC beta I)?
A: 2%

Q: What about the “% Inhibition at 10 μM” value (PKC beta II) of the same molecule?
A: −4%

Q: And the “% Inhibition at 10 μM” value (PKC delta)?
A: −1%

Q: What about the “% Inhibition at 10 μM” value (PKC epsilon) of the same molecule?
A: −1%

Q: What about the “% Inhibition at 10 μM” value (PKC eta) of the same molecule?
A: 3%

Q: And the “% Inhibition at 10 μM” value (PKC gamma)?
A: 5%

Q: And the EC50 (HUVECs; HUVECs, full growth medium containing 10% FBS)?
A: 0.54 µM

Q: And the “cell cycle / mitotic progression” value (XPA-1 cells)?
A: G2/M arrest in all tumor cell lines tested

Q: With `CNC(=O)c1cc(Oc2ccc(NC(=O)Nc3ccc(Cl)c(C(F)(F)F)c3)cc2)ccn1` [sorafenib, reference compound] as the molecule, how does the inhibition at 10 µM (AKT1) read?
A: 2%

Q: And the inhibition at 10 µM (CK2 alpha 1)?
A: -3%

Q: And the inhibition at 10 µM (CRAF Y340D Y341D)?
A: 95%

Q: What about the inhibition at 10 µM (ERK1) of the same molecule?
A: 3%

Q: And the inhibition at 10 µM (ERK2)?
A: 0%

Q: And the inhibition at 10 µM (FAK2)?
A: -3%

Q: And the inhibition at 10 µM (FGFR1)?
A: 44%

Q: And the inhibition at 10 µM (FGFR2)?
A: 83%

Q: What about the inhibition at 10 µM (FGFR3) of the same molecule?
A: 37%

Q: And the inhibition at 10 µM (FGFR3 K650E)?
A: 78%

Q: What about the inhibition at 10 µM (IGF1R) of the same molecule?
A: -3%

Q: And the inhibition at 10 µM (JNK2)?
A: 10%

Q: What about the inhibition at 10 µM (JNK3) of the same molecule?
A: -4%

Q: And the inhibition at 10 µM (KIT)?
A: 37%

Q: And the inhibition at 10 µM (MAPKAPK2; read-out: % Inhibition at 10 μM)?
A: 2%

Q: What about the inhibition at 10 µM (MEK1) of the same molecule?
A: 0%

Q: And the inhibition at 10 µM (MEK2)?
A: -4%

Q: And the inhibition at 10 µM (MET (cMet))?
A: 2%

Q: And the inhibition at 10 µM (MET M1250T)?
A: 3%

Q: And the inhibition at 10 µM (PAK2)?
A: 2%

Q: What about the inhibition at 10 µM (PKC alpha) of the same molecule?
A: -2%

Q: And the inhibition at 10 µM (PKC beta I)?
A: -1%

Q: What about the inhibition at 10 µM (PKC beta II) of the same molecule?
A: -3%

Q: And the inhibition at 10 µM (PKC delta)?
A: -4%

Q: And the inhibition at 10 µM (PKC epsilon)?
A: -2%

Q: What about the inhibition at 10 µM (PKC eta) of the same molecule?
A: 2%

Q: And the inhibition at 10 µM (PKC gamma)?
A: -3%

Q: And the EC50 (HUVECs; Homo sapiens, HUVEC)?
A: 13.2 µM

Q: And the “cell cycle / mitotic progression” value (XPA-1 cells)?
A: had no effect on mitotic progression
